In the supplement of paper PMC10307832:

Columns and labels:
Assay in all cases: relative viability (nuclei count vs DMSO), 5 days (fraction); higher = more cells survive
[1] = compound: Cc1cc(Nc2cc(N3CCN(C)CC3)nc(Sc3ccc(NC(=O)C4CC4)cc3)n2)n[nH]1 [Tozasertib] + CC(=O)Nc1cccc(-n2c(=O)n(C3CC3)c(=O)c3c(Nc4ccc(I)cc4F)n(C)c(=O)c(C)c32)c1 [Trametinib] (partner 0.02 µM)
Outline: (§1)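 Relative viability is defined as nuclei in treated wells over nuclei in vehicle wells. Duplicate plates were run and medians reported. Lung cancer cell lines in 1536-well plates were dosed by pin tool one day after seeding, with one drug or with a fixed anchor-drug dose plus five library-drug doses (not always all listed) in √10 steps, and nuclei were counted after 5 days.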

[2] = compound: Cc1cc(Nc2cc(N3CCN(C)CC3)nc(Sc3ccc(NC(=O)C4CC4)cc3)n2)n[nH]1 [Tozasertib] + CC(=O)c1c(C)c2cnc(Nc3ccc(N4CCNCC4)cn3)nc2n(C2CCCC2)c1=O [Palbociclib] (partner 0.5 µM)
Outline: as §1

[3] = compound: Cc1cc(Nc2cc(N3CCN(C)CC3)nc(Sc3ccc(NC(=O)C4CC4)cc3)n2)n[nH]1 [Tozasertib] + Cc1nc(Nc2ncc(C(=O)Nc3c(C)cccc3Cl)s2)cc(N2CCN(CCO)CC2)n1 [Dasatinib] (partner 0.075 µM)
Outline: as §1

[4] = compound: Cc1cc(Nc2cc(N3CCN(C)CC3)nc(Sc3ccc(NC(=O)C4CC4)cc3)n2)n[nH]1 [Tozasertib] + N=C(N)NC(=N)NCCc1ccccc1 [Phenformin] (partner 250 µM)
Outline: as §1

[5] = compound: Cc1cc(Nc2cc(N3CCN(C)CC3)nc(Sc3ccc(NC(=O)C4CC4)cc3)n2)n[nH]1 [Tozasertib] + Nc1nc2[nH]cc(CCc3ccc(C(=O)N[C@@H](CCC(=O)O)C(=O)O)cc3)c2c(=O)[nH]1 [Pemetrexed] (partner 0.2 µM)
Outline: as §1

Row | Cell Line | relative viability ([1]; first compound 0.004 µM) | relative viability ([1]; first compound 0.01265 µM) | relative viability ([1]; first compound 0.04 µM) | relative viability ([1]; first compound 0.1265 µM) | relative viability ([2]; first compound 0.004 µM) | relative viability ([2]; first compound 0.01265 µM) | relative viability ([2]; first compound 0.04 µM) | relative viability ([2]; first compound 0.1265 µM) | relative viability ([3]; first compound 0.004 µM) | relative viability ([3]; first compound 0.01265 µM) | relative viability ([3]; first compound 0.04 µM) | relative viability ([3]; first compound 0.1265 µM) | relative viability ([4]; first compound 0.004 µM) | relative viability ([4]; first compound 0.01265 µM) | relative viability ([4]; first compound 0.04 µM) | relative viability ([4]; first compound 0.1265 µM) | relative viability ([5]; first compound 0.004 µM) | relative viability ([5]; first compound 0.01265 µM) | relative viability ([5]; first compound 0.04 µM) | relative viability ([5]; first compound 0.1265 µM)
1 | NCI-H1975 | 0.385 | 0.321 | 0.826 | 0.322 | 0.59 | 0.598 | 0.623 | 0.622 | 0.492 | 0.407 | 0.342 | 0.308 | 0.444 | 0.432 | 0.428 | 0.366 | 0.317 | 0.289 | 0.307 | 0.272
2 | NCI-H1651 | 0.884 | 0.785 | 0.907 |  | 0.54 | 0.515 | 0.539 | 0.519 | 0.433 | 0.371 |  | 0.234 | 0.319 | 0.339 | 0.316 | 0.267 | 0.593 | 0.615 | 0.582 | 0.433
3 | SK-MES-1 | 0.589 | 0.557 | 0.713 | 0.616 | 0.317 | 0.32 | 0.364 | 0.38 | 0.358 | 0.336 | 0.342 | 0.356 | 0.691 | 0.642 | 0.71 | 0.696 | 0.907 | 0.892 | 1.02 | 0.769
4 | NCI-H661 | 0.564 | 0.579 | 0.618 | 0.336 | 0.412 | 0.406 | 0.425 | 0.299 | 1.12 | 0.85 | 0.699 | 0.249 | 0.287 | 0.313 | 0.319 | 0.253 | 1.01 | 0.833 | 0.933 | 0.561
5 | NCI-H23 | 0.356 | 0.435 | 0.426 | 0.223 | 0.58 | 0.518 | 0.498 | 0.313 | 0.747 | 0.91 | 0.832 | 0.909 | 0.76 |  | 0.85 | 0.745 | 0.888 | 0.659 | 0.695 | 0.319
6 | LXF-289 | 0.69 | 0.625 | 0.685 | 0.571 | 0.63 | 0.6 | 0.561 | 0.583 | 0.226 | 0.198 | 0.232 | 0.0943 | 0.589 | 0.511 | 0.507 | 0.383 | 0.972 | 0.824 | 0.842 | 0.859
7 | NCI-H1915 | 0.261 | 0.298 | 0.336 | 0.264 | 0.515 | 0.498 | 0.535 | 0.465 | 0.376 | 0.298 | 0.313 | 0.264 | 0.381 | 0.324 | 0.336 | 0.321 | 0.46 | 0.477 | 0.474 | 0.412
8 | SW 900 | 0.653 | 0.798 | 0.911 | 0.509 | 0.62 | 0.536 | 0.542 | 0.382 | 0.79 | 0.51 | 0.503 | 0.567 | 0.583 | 0.381 | 0.708 | 0.586 | 0.516 |  | 0.498 | 0.408
9 | COR-L23 | 0.613 | 0.599 | 0.609 | 0.332 | 0.309 | 0.297 | 0.274 | 0.161 | 0.521 | 0.547 | 0.479 | 0.245 | 0.44 | 0.425 | 0.407 | 0.176 | 0.206 | 0.206 | 0.187 | 0.179
10 | NCI-H2228 | 0.485 | 0.503 | 0.513 | 0.345 | 0.994 | 0.764 | 0.671 | 0.453 | 0.493 | 0.493 | 0.546 | 0.232 | 0.375 | 0.298 | 0.254 | 0.132 | 0.319 | 0.32 | 0.376 | 0.322
11 | PC-3 [JPC-3] | 0.502 | 0.72 | 0.762 | 0.715 | 0.526 | 0.535 | 0.511 | 0.545 | 0.863 | 0.966 | 1.06 | 1.03 | 0.377 | 0.49 | 0.536 | 0.469 | 1.08 | 1.01 | 1.21 | 0.919
12 | NCI-H2405 | 0.649 | 0.658 | 0.652 | 0.611 | 0.558 | 0.538 | 0.498 | 0.527 | 0.251 | 0.124 | 0.19 | 0.197 | 0.392 | 0.402 | 0.424 | 0.408 | 1.01 | 1.12 | 0.973 | 0.894
13 | NCI-H1993 | 0.444 | 0.396 | 0.5 | 0.54 | 0.622 | 0.63 | 0.681 | 0.743 | 0.729 | 0.456 | 0.636 | 0.537 | 0.527 | 0.482 | 0.481 | 0.486 | 0.587 | 0.605 | 0.634 | 0.476
14 | LC-2-ad | 0.942 | 0.816 | 0.934 | 0.743 | 0.503 | 0.529 | 0.442 | 0.477 | 0.624 | 0.565 | 0.482 | 0.236 | 0.618 | 0.548 | 0.514 | 0.299 | 0.291 | 0.252 | 0.265 | 0.275
15 | RERF-LC-KJ | 0.807 | 0.841 | 0.862 |  | 1.14 | 0.973 | 1.01 | 0.969 | 0.729 | 0.806 | 0.852 | 0.582 | 0.443 | 0.425 | 0.485 | 0.435 | 0.465 | 0.442 | 0.486 | 0.361
16 | H3255 | 0.578 | 0.618 | 0.552 | 0.659 | 0.33 | 0.292 | 0.315 | 0.324 | 0.37 | 0.409 | 0.339 | 0.304 | 0.291 | 0.396 | 0.379 | 0.353 | 0.519 | 0.579 | 0.567 | 0.552
17 | NCI-H650 | 1.06 | 0.918 | 0.894 | 0.823 | 0.362 | 0.288 | 0.317 | 0.313 | 0.577 | 0.384 | 0.452 | 0.389 | 0.497 | 0.445 | 0.444 | 0.379 | 1.01 | 0.897 | 0.878 | 0.82
